According to PMC11859726, “HDAC/σ1R Dual-Ligand as a Targeted Melanoma Therapeutic” (Pharmaceuticals, 2025):
Where two headings read alike, the source gives them in different places.

Columns and labels:
[1] = target: T1, σ1R (Cavia porcellus, UniProt Q60492); test: σ1R radioligand binding assay ([3H]-(+)-pentazocine); design: species or system guinea pig
T1 construct: using guinea pig brain membranes and appropriate radioligands; from tissue; host or cells: guinea pig brain membranes
Protocol: (§4) Radioactivity was determined with a Beckman LS6500 scintillation counter. Inhibition constants (Ki values) were calculated with the EBDA/LIGAND program (Elsevier/Biosoft).

[2] = target: T2, σ2R (Cavia porcellus, UniProt H0V073); test: σ2R radioligand binding assay ([3H]-DTG); design: species or system guinea pig
T2 construct: using guinea pig brain membranes and appropriate radioligands; from tissue; host or cells: guinea pig brain membranes
T2 sequence (H0V073 1-176): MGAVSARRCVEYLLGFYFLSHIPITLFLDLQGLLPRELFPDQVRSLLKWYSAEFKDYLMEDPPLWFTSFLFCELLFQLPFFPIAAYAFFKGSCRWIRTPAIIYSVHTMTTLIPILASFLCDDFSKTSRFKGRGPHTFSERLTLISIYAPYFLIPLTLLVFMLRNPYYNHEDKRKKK
Protocol: as §4

[3] = test system: UM 92-1 cells; test: Cell proliferation, UM 92-1 cells; type: cell-based, human; details: for effect on proliferation: UM 92-1 cells, 3c 30 and 100 nM, pentazocine 2 μM, AC927 2 μM, Figure 3a
Protocol: (§1) Cells were seeded in 96-well plates at a cell-specific density, following quantification of cell numbers on counting chambers after trypsinization and staining with trypan blue. After seeding (72 h), at a cell confluence of ~50%, the medium was removed, and treatments were started with fresh media. Treatments, carried out in quadruplicate, lasted for 48 h. Then, the cells were fixed with 4% paraformaldehyde in PBS for 20 min and, after washing, stained with either 1% crystal violet in water or an acridine orange solution (50 µg/mL) for an additional 20 min. At the end of the incubations, cells were washed (3 times) with 100 μL/well of bidistilled water. Finally, for crystal violet assays, 100 μL of 10% acetic acid was added to each well, and the absorbance (λ = 590 nm) was measured with a Synergy HTX Bioteck spectrophotometer (BioSPX, Beersel, Belgium). For acridine orange assays, cell staining was evaluated by measuring the fluorescence (excitation 485/20 nm, emission 528/20 nm) with the Synergy HTX Bioteck reader.

[4] = test system: A375 cells; test: Cell proliferation, CM A375 cells; type: cell-based, human; details: for effect on proliferation: CM A375 cells, 3c 90 and 200 nM, pentazocine 2 μM, AC927 2 μM, Figure 3b
Protocol: as §1

[5] = test system: endothelial C166 cells; test: Tube formation assay, VEGF-A-stimulated endothelial cells; type: cell-based, mouse; details: for effect on VEGF-A-stimulated angiogenesis (tube lengths, mesh areas, node numbers; words): 5 µM; for antiangiogenic effect in the presence of pentazocine: 5 µM plus σ1R agonist pentazocine 2 μM; for antiangiogenic effect in the presence of pentazocine / antiangiogenic effect in the presence of AC927: combined score; for antiangiogenic effect in the presence of AC927: 5 µM plus σ2R antagonist AC927 2 μM
Protocol: The tube formation assay using mouse endothelial […] cells was analyzed employing Matrigel (BD, Bedford, MA, USA), as previously described. Briefly, 96-well plates coated with Matrigel (50 μL/well) were filled with 100 μL medium/well and maintained overnight. Endothelial cells were seeded at 2.5 × 10^4 cells/well and incubated (for 3 h) with VEGF-A (80 ng/mL), in the presence of the indicated treatments. Then, capillary-like structures were imaged (×4 magnification) with a CCD camera connected with an inverted EVOS microscope. Finally, ImageJ software (NIH, Bethesda, MD, USA) was employed to quantify tube formations.

[6] = test system: UM 92-1 cells; test: Tumor cell spreading assay, 92-1 cells; type: cell-based, human; details: 1 h; for cells flat, with protrusions, Exp 1 (%) / cells flat, with protrusions, Exp 2 (%) / cells flat, with protrusions, Exp 3 (%) / rounded cells, Exp 1 (%) / rounded cells, Exp 2 (%) / rounded cells, Exp 3 (%): 92-1, % of total cell population; for inhibition of cell spreading: UM 92-1 cells, from 100 nM
Protocol: (§2) Adherent 92-1 and MCF-7 cells were harvested using 0.05% Trypsin-EDTA and plated in 6-well plates. After 1 h incubations with the indicated treatments, the number of cells that formed, or not, distinct protrusions (lamellipodia, filopodia) were scored with an inverted microscope (20×, EVOS cell imaging system, Thermo Fisher, Waltham, MA, USA).

[7] = test system: MCF7 cells; test: Tumor cell spreading assay, MCF7 cells; type: cell-based, human; details: 100 nM, 1 h; for inhibition of cell spreading: MCF7 cells (low σ1R); for cells flat, with protrusions, Exp 1 (%) / cells flat, with protrusions, Exp 2 (%) / cells flat, with protrusions, Exp 3 (%) / rounded cells, Exp 1 (%) / rounded cells, Exp 2 (%) / rounded cells, Exp 3 (%): MCF-7, % of total cell population
Protocol: as §2

[8] = test system: HDAC (total HDAC activity, HCT116 cell lysates); test: HDAC activity colorimetric assay in HCT116 cell lysates; type: biochemical, human
Protocol: (§3) HDAC activity was determined in the indicated cell lysates (50 µg proteins; 37 °C) using the non-selective HDAC Activity Colorimetric Assay kit (BioVision, Cambridge, UK), following the procedures described in previous studies. Samples were read at 405 nm with a microplate reader (Multiskan GO (Thermo Fisher Scientific, Waltham, MA, USA)), and the HDAC activity was expressed as the relative optical density (O.D.) values.

[9] = test system: HDAC enzymatic activities (MCF7, PC3, AGS cell lysates); test: HDAC activity colorimetric assay in other cancer cell lysates (MCF7, PC3, AGS); type: biochemical, human; details: other cancer cell types (MCF7, PC3, AGS lysates) vs control
Protocol: as §3

[10] = test system: A549 cells; test: Cell proliferation, A549 cells; type: cell-based; details: Homo sapiens; A549 (Lung Carcinoma); 48 h; mean ± SD; read-out: Antiproliferative IC50
Protocol: as §1

[11] = test system: 786-O cells; test: Cell proliferation, 786-O cells; type: cell-based; details: Homo sapiens, 786-0; 786-O (Renal Adenocarcinoma); 48 h; mean ± SD; read-out: Antiproliferative IC50
Protocol: as §1

[12] = test system: MRC-5 cells; test: Cell proliferation, normal MRC-5 fibroblasts; type: cell-based; details: Homo sapiens, MRC5; MRC-5 (Normal Lung Fibroblast); 48 h; mean ± SD; read-out: Antiproliferative IC50
Protocol: as §1

[13] = test system: T84 cells; test: Cell proliferation, T84 cells; type: cell-based, human
Protocol: as §1

[14] = test system: WS1 cells; test: Cell proliferation, normal WS1 fibroblasts; type: cell-based; details: Homo sapiens; WS1 (Normal Skin Fibroblast); 48 h; mean ± SD; read-out: Antiproliferative IC50
Protocol: as §1

T1 sequence (Q60492 whole entry): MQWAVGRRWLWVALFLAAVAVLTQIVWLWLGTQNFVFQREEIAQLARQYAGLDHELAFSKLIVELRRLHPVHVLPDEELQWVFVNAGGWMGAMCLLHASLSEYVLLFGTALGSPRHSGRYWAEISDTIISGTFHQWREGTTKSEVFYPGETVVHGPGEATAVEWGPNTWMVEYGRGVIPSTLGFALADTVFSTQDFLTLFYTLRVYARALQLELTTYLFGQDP

## COC(=O)/C=C/c1ccc(CN2CCC(O)(c3ccc(Cl)cc3)CC2)cc1 [3c, Metil-(E)-3-(4-{[4-(4-clorofenil)-4-idrossipiperidin-1-il]methyl}phenyl)acrylate]
[1]
  Ki: 28 ± 4.4 nM
[2]; guinea pig brain membranes, mean ± SD, read-out: Ki σ2R
  Ki: 1330 ± 286 nM
[3]
  effect on proliferation: loss of activity
[4]
  effect on proliferation: loss of activity
[5]; 3 h, VEGF-A 80 ng/mL
  effect on VEGF-A-stimulated angiogenesis (tube lengths, mesh areas, node numbers; words): mimicked the effects of 5c
[6]; 100 nM
  cells flat, with protrusions, Exp 1 (%): 36,01%
  cells flat, with protrusions, Exp 2 (%): 25,21%
  cells flat, with protrusions, Exp 3 (%): 33,92%
  rounded cells, Exp 1 (%): 63,99%
  rounded cells, Exp 2 (%): 74,79%
  rounded cells, Exp 3 (%): 66,08%
[6]; 5 µM
  cells flat, with protrusions, Exp 1 (%): 45,38%
  cells flat, with protrusions, Exp 2 (%): 18,28%
  cells flat, with protrusions, Exp 3 (%): 39,44%
  rounded cells, Exp 1 (%): 54,62%
  rounded cells, Exp 2 (%): 81,72%
  rounded cells, Exp 3 (%): 60,56%
[6]
  inhibition of cell spreading: significantly suppressed
[7]
  inhibition of cell spreading: unable to significantly inhibit
  cells flat, with protrusions, Exp 1 (%): 49,37%
  cells flat, with protrusions, Exp 2 (%): 50,89%
  cells flat, with protrusions, Exp 3 (%): 46,27%
  rounded cells, Exp 1 (%): 50,63%
  rounded cells, Exp 2 (%): 49,11%
  rounded cells, Exp 3 (%): 53,73%

## Cl.O=C(/C=C/c1ccc(CN2CCC(O)(c3ccc(Cl)cc3)CC2)cc1)NO [5c, (E)-4-(4-chlorophenyl)-4-hydroxy-1-{4-[3-(hydroxyamino)-3-oxoprop-1-en-1-yl]benzyl}piperidin-1-ium chloride]
[1]
  Ki: 19 ± 1.6 nM
[1]; σ1R vs σ2R Ki
  fold higher affinity for σ1R than σ2R: > 100 fold
[2]
  Ki: 2050 ± 737 nM
[8]
  HDAC inhibition with respect to the vehicle control: ~ 80%
[8]; 0–20 µM, read-out: IC50 on HDAC-dependent catalytic activity
  IC50: 14.6 nM
[9]
  suppression of resident HDAC enzymatic activities: significant suppression
[3]; 92-1 vs MRC-5 IC50
  superior antiproliferative potency in UM cells compared to normal lung fibroblasts: ~ 5 fold
[3]; Homo sapiens, 92.1 (Uveal Melanoma), 48 h, mean ± SD, read-out: Antiproliferative IC50
  IC50: 24.8 ± 5.8 nM
[4]; CM A375, lung A549 and renal 786-O vs WS1
  shift to the left in antiproliferative dose–response curves compared to normal skin fibroblasts: 8–10 fold
[4]; Homo sapiens, A-375, A375 (Cutaneous Melanoma), 48 h, mean ± SD, read-out: Antiproliferative IC50
  IC50: 91.5 ± 11.4 nM
[10]
  IC50: 118 ± 13 nM
[11]
  IC50: 150 ± 24 nM
[12]
  IC50: 157 ± 55.2 nM
[13]; Homo sapiens, T84 (Colorectal Carcinoma), 48 h, mean ± SD, read-out: Antiproliferative IC50
  IC50: 1200 ± 381 nM
[13]; colon cancer T84 cells
  sensitivity to antitumor actions: resistant
[14]
  IC50: 1160 ± 187 nM
[5]; 30 nM, 3 h, VEGF-A 80 ng/mL
  effect on VEGF-A-stimulated angiogenesis: without effects
[5]
  antiangiogenic effect in the presence of pentazocine: completely prevented
  antiangiogenic effect in the presence of AC927: to a significantly lesser extent than pentazocine
[5]; 3 h, VEGF-A 80 ng/mL
  effect on VEGF-A-stimulated angiogenesis (tube lengths, mesh areas, node numbers; words): abrogated
[6]; 100 nM
  cells flat, with protrusions, Exp 1 (%): 37,23%
  cells flat, with protrusions, Exp 2 (%): 27,77%
  cells flat, with protrusions, Exp 3 (%): 37,27%
  rounded cells, Exp 1 (%): 62,77%
  rounded cells, Exp 2 (%): 72,23%
  rounded cells, Exp 3 (%): 62,73%
[6]; 5 µM
  cells flat, with protrusions, Exp 1 (%): 28,48%
  cells flat, with protrusions, Exp 2 (%): 17,22%
  cells flat, with protrusions, Exp 3 (%): 33,05%
  rounded cells, Exp 1 (%): 71,52%
  rounded cells, Exp 2 (%): 82,78%
  rounded cells, Exp 3 (%): 66,95%
[6]
  inhibition of cell spreading: significant inhibition
[7]
  inhibition of cell spreading: failed to suppress
  cells flat, with protrusions, Exp 1 (%): 47,13%
  cells flat, with protrusions, Exp 2 (%): 44,67%
  cells flat, with protrusions, Exp 3 (%): 39,07%
  rounded cells, Exp 1 (%): 52,87%
  rounded cells, Exp 2 (%): 55,33%
  rounded cells, Exp 3 (%): 60,93%

## CCCC(CCC)C(=O)O[C@@H](CCCN1CCC(O)(c2ccc(Cl)cc2)CC1)c1ccc(F)cc1 [(-)-1, reference compound]
[5]
  antiangiogenic effect in the presence of pentazocine: partially and equally blocked
  antiangiogenic effect in the presence of AC927: partially and equally blocked
[5]; 3 h, VEGF-A 80 ng/mL
  effect on VEGF-A-stimulated angiogenesis (tube lengths, mesh areas, node numbers; words): significantly inhibited
[6]; 100 nM
  cells flat, with protrusions, Exp 1 (%): 33,84%
  cells flat, with protrusions, Exp 2 (%): 21,33%
  cells flat, with protrusions, Exp 3 (%): 34,97%
  rounded cells, Exp 1 (%): 66,16%
  rounded cells, Exp 2 (%): 78,67%
  rounded cells, Exp 3 (%): 65,03%
[6]; 5 µM
  cells flat, with protrusions, Exp 2 (%): 13,49%
  cells flat, with protrusions, Exp 3 (%): 26,09%
  rounded cells, Exp 2 (%): 86,51%
  rounded cells, Exp 3 (%): 73,91%
[6]
  inhibition of cell spreading: reduced UM cell spreading with seemingly higher potencies
[7]
  inhibition of cell spreading: unable to significantly inhibit
  cells flat, with protrusions, Exp 1 (%): 45,95%
  cells flat, with protrusions, Exp 2 (%): 48,03%
  cells flat, with protrusions, Exp 3 (%): 40,28%
  rounded cells, Exp 1 (%): 54,05%
  rounded cells, Exp 2 (%): 51,97%
  rounded cells, Exp 3 (%): 59,72%

## c1ccc(CCN2CCCCC2)cc1 [AC927, reference compound]
[3]
  effect on proliferation: did not alter
[4]
  effect on proliferation: did not alter

## CC(C)=CCN1CCC2(C)c3cc(O)ccc3CC1C2C (stereo not drawn) [PTZ, pentazocine, reference compound]
[3]
  effect on proliferation: did not alter
[4]
  effect on proliferation: did not alter
